Laboratory results from PubChem BioAssay (NCI).
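Exposure lasted 48 hours, with cells grown in 96-well plates and compounds tested at five concentrations. GI50 is the concentration that inhibits growth by half. The concentration for full growth arrest is given as TGI.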

Assays:
Assay in all cases: DTP human tumour cell line panel, 48 h
RXF 393 renal = tested on: RXF 393 renal
SF-268 CNS = tested on: SF-268 CNS
HCC-2998 colon = tested on: HCC-2998 colon
786-0 renal = tested on: 786-0 renal
CCRF-CEM leukemia = tested on: CCRF-CEM leukemia
EKVX NSCLC = tested on: EKVX NSCLC
HCT-116 colon = tested on: HCT-116 colon
LOX IMVI melanoma = tested on: LOX IMVI melanoma
UACC-62 melanoma = tested on: UACC-62 melanoma
HL-60(TB) leukemia = tested on: HL-60(TB) leukemia
MDA-MB-231 breast = tested on: MDA-MB-231 breast
M14 melanoma = tested on: M14 melanoma
MDA-MB-435 = tested on: MDA-MB-435
SK-MEL-2 melanoma = tested on: SK-MEL-2 melanoma
OVCAR-3 ovarian = tested on: OVCAR-3 ovarian
U251 CNS = tested on: U251 CNS
SK-OV-3 ovarian = tested on: SK-OV-3 ovarian
K-562 leukemia = tested on: K-562 leukemia
SNB-19 CNS = tested on: SNB-19 CNS
NCI-H522 lung = tested on: NCI-H522 lung
NCI-H226 lung = tested on: NCI-H226 lung
BT-549 breast = tested on: BT-549 breast
SK-MEL-28 melanoma = tested on: SK-MEL-28 melanoma
TK-10 renal = tested on: TK-10 renal
A549 NSCLC = tested on: A549 NSCLC
MALME-3M melanoma = tested on: MALME-3M melanoma
HCT-15 colon = tested on: HCT-15 colon
HOP-62 NSCLC = tested on: HOP-62 NSCLC
NCI/ADR-RES ovarian = tested on: NCI/ADR-RES ovarian
MCF7 breast = tested on: MCF7 breast
SR leukemia = tested on: SR leukemia
OVCAR-4 ovarian = tested on: OVCAR-4 ovarian
MOLT-4 leukemia = tested on: MOLT-4 leukemia
CAKI-1 renal = tested on: CAKI-1 renal
SW-620 colon = tested on: SW-620 colon
ACHN renal = tested on: ACHN renal
KM12 colon = tested on: KM12 colon
A498 renal = tested on: A498 renal
PC-3 prostate = tested on: PC-3 prostate
OVCAR-8 ovarian = tested on: OVCAR-8 ovarian
SF-539 CNS = tested on: SF-539 CNS
RPMI-8226 leukemia = tested on: RPMI-8226 leukemia
OVCAR-5 ovarian = tested on: OVCAR-5 ovarian
UACC-257 melanoma = tested on: UACC-257 melanoma
IGROV1 ovarian = tested on: IGROV1 ovarian
SK-MEL-5 melanoma = tested on: SK-MEL-5 melanoma
SN12C renal = tested on: SN12C renal
UO-31 renal = tested on: UO-31 renal
SF-295 CNS = tested on: SF-295 CNS
SNB-75 CNS = tested on: SNB-75 CNS
COLO 205 colon = tested on: COLO 205 colon
DU-145 prostate = tested on: DU-145 prostate
HT29 colon = tested on: HT29 colon
NCI-H23 lung = tested on: NCI-H23 lung
NCI-H460 lung = tested on: NCI-H460 lung
HS 578T breast = tested on: HS 578T breast
T-47D breast = tested on: T-47D breast

## CS(=O)(=O)CCN(CC#N)Cc1ccc(-c2ccc3ncnc(Nc4ccc(OCc5cccc(F)c5)c(Cl)c4)c3c2)o1
RXF 393 renal
  GI50: 10.8 µM
  TGI: > 23.5 µM
SF-268 CNS
  GI50: 16 µM
  TGI: > 25 µM
HCC-2998 colon
  GI50: 15.1 µM
  TGI: > 25 µM
786-0 renal
  GI50: 14.9 µM
  TGI: > 25 µM
CCRF-CEM leukemia
  GI50: 9.45 µM
  TGI: > 25 µM
EKVX NSCLC
  GI50: 0.313 µM
  TGI: > 25 µM
HCT-116 colon
  GI50: 11 µM
  TGI: > 25 µM
LOX IMVI melanoma
  GI50: 6.52 µM
  TGI: 19.8 µM
UACC-62 melanoma
  GI50: > 22.3 µM
  TGI: > 25 µM
HL-60(TB) leukemia
  GI50: 11.2 µM
  TGI: > 25 µM
MDA-MB-231 breast
  GI50: 8.35 µM
  TGI: > 25 µM
M14 melanoma
  GI50: 11.7 µM
  TGI: > 25 µM
MDA-MB-435
  GI50: 11 µM
  TGI: > 25 µM
SK-MEL-2 melanoma
  GI50: 17.3 µM
  TGI: > 25 µM
OVCAR-3 ovarian
  GI50: 10.6 µM
  TGI: > 25 µM
U251 CNS
  GI50: 15.2 µM
  TGI: > 25 µM
SK-OV-3 ovarian
  GI50: 0.107 µM
  TGI: > 25 µM
K-562 leukemia
  GI50: 9.98 µM
  TGI: > 25 µM
SNB-19 CNS
  GI50: > 25 µM
  TGI: > 25 µM
NCI-H522 lung
  GI50: 4.3 µM
  TGI: > 18.5 µM
NCI-H226 lung
  GI50: > 25 µM
  TGI: > 25 µM
BT-549 breast
  GI50: 15.6 µM
  TGI: > 25 µM
SK-MEL-28 melanoma
  GI50: > 25 µM
  TGI: > 25 µM
TK-10 renal
  GI50: 1.19 µM
  TGI: > 25 µM
A549 NSCLC
  GI50: 14.6 µM
  TGI: > 25 µM
MALME-3M melanoma
  GI50: 14.9 µM
  TGI: > 25 µM
HCT-15 colon
  GI50: 10.2 µM
  TGI: > 25 µM
HOP-62 NSCLC
  GI50: > 25 µM
  TGI: > 25 µM
NCI/ADR-RES ovarian
  GI50: 8.17 µM
  TGI: > 25 µM
MCF7 breast
  GI50: 8.66 µM
  TGI: > 25 µM
SR leukemia
  GI50: 8.93 µM
  TGI: > 25 µM
OVCAR-4 ovarian
  GI50: 11.4 µM
  TGI: > 25 µM
MOLT-4 leukemia
  GI50: 8.81 µM
  TGI: > 25 µM
CAKI-1 renal
  GI50: 0.896 µM
  TGI: > 25 µM
SW-620 colon
  GI50: 11.7 µM
  TGI: > 25 µM
ACHN renal
  GI50: 1.73 µM
  TGI: > 25 µM
KM12 colon
  GI50: 9.34 µM
  TGI: > 25 µM
A498 renal
  GI50: 4.29 µM
  TGI: > 23.7 µM
PC-3 prostate
  GI50: 10.9 µM
  TGI: > 25 µM
OVCAR-8 ovarian
  GI50: 9.75 µM
  TGI: > 25 µM
SF-539 CNS
  GI50: > 25 µM
  TGI: > 25 µM
RPMI-8226 leukemia
  GI50: 11.7 µM
  TGI: > 25 µM
OVCAR-5 ovarian
  GI50: 7.89 µM
  TGI: > 25 µM
UACC-257 melanoma
  GI50: > 25 µM
  TGI: > 25 µM
IGROV1 ovarian
  GI50: 6.25 µM
  TGI: > 25 µM
SK-MEL-5 melanoma
  GI50: 4.91 µM
  TGI: > 25 µM
SN12C renal
  GI50: 12.7 µM
  TGI: > 25 µM
UO-31 renal
  GI50: 5.56 µM
  TGI: > 25 µM
SF-295 CNS
  GI50: 24.7 µM
  TGI: > 25 µM
SNB-75 CNS
  GI50: > 17.1 µM
  TGI: > 25 µM
COLO 205 colon
  GI50: > 19.1 µM
  TGI: > 25 µM
DU-145 prostate
  GI50: 10.5 µM
  TGI: > 25 µM
HT29 colon
  GI50: 10.3 µM
  TGI: > 25 µM
NCI-H23 lung
  GI50: 13.2 µM
  TGI: > 25 µM
NCI-H460 lung
  GI50: 10.9 µM
  TGI: > 25 µM
HS 578T breast
  GI50: 6.13 µM
  TGI: > 20.4 µM
T-47D breast
  GI50: 5.48 µM
  TGI: > 23.7 µM
